Where two headings read alike, the source gives them in different places. Some results are limits rather than exact numbers.

For seven compounds, IC50 and EC50 results are on record in patent US20250276952A1, “4-AMINOPHENYL-THIAZOLE DERIVATIVES AND METHODS OF USE THEREOF” (CYTEIR THERAPEUTICS, INC., priority 2022, published 2025).

The target in assay [1] is T1, human MCT1 (Homo sapiens, UniProt P53985).
T1 construct: expressed in transfected cells; host or cells: MDCK-II cells, transiently co-transfected for 48 h
T1 sequence (P53985 1-500): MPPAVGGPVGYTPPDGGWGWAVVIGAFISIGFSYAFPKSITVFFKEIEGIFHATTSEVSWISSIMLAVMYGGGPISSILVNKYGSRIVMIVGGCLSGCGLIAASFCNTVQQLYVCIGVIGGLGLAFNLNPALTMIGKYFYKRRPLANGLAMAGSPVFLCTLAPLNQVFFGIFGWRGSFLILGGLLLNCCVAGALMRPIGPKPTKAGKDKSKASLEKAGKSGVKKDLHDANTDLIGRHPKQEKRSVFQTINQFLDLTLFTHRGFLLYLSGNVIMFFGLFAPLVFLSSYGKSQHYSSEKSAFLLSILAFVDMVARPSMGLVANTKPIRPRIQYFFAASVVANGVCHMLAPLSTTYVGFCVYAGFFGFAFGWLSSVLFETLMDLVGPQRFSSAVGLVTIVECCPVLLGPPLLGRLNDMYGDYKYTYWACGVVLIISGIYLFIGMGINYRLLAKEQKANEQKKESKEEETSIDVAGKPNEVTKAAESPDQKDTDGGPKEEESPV
T1 sequence (P35613 140-385 partner limits assumed): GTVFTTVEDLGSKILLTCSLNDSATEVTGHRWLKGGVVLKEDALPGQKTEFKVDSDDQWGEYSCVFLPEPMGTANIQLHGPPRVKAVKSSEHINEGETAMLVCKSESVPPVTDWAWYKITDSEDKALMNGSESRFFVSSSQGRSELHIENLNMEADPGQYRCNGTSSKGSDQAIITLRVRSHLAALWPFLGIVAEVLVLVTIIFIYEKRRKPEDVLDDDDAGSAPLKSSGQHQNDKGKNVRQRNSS
In words: MCT1 transport inhibition assay (TPGA uptake, LC-MS/MS). The note with it: MDCK-II cells overexpressing human MCT1, TPGA transport, read-out: BioIVT MCT1 Transporter IC50. The class given is cell-based. As to the method:
Inhibition of MCT1 transport after treatment with compounds of the present invention was measured in MDCK-II cells that overexpress human MCT1 by quantifying the transport of 2-Thiophene-glycoxylic acid (TPGA) into cells using LC-MS/MS.
MDCK-II cells are seeded at 60,000 cells per well in growth medium (low-glucose DMEM+10% FBS) in 96-well trans-well membrane plates, and incubated overnight (37° C., 5% CO2). Cells were co-transfected with mammalian expression constructs coding for MCT1 and CD147 at a 2:1 ratio or an empty vector control (GFP) and then incubated for 48 h (37° C., 5% CO2). Cells were washed 3 times with HBSS and cells were preincubated with inhibitors or vehicle control at room temperature in HBSS for 30 min with orbital shaking (60 rpm). HBSS was aspirated from the wells and replaced with HBSS with 25 mM Bis-Tris pH5.5+inhibitor or vehicle control+500 μM TPGA and incubated for 1 min at room temperature with orbital shaking (60 rpm). Both the apical and basolateral side of the trans-well insert were washed 4 times with ice-cold PBS. Cells were lysed with 60 μL of cell extraction solution, and the amount of TPGA in each well was quantified in triplicate by LC-MS/MS. The MCT1-mediated uptake rate was calculated using the following equation: […]
Percent inhibition for each concentration of inhibitor tested was calculated using the following equation: […]
Curves were fit to the calculated percent inhibition for each inhibitor, and the IC50 representing the concentration of inhibitor at which MCT1 is inhibited by 50% was calculated from this curve.

The test system of assay [2] is Daudi (Burkitt Lymphoma) cells. In words: Intracellular lactate accumulation assay (Lactate-Glo, 2 h treatment). The class given is cell-based. The note with it: Homo sapiens, read-out: LactateGlo EC50. As to the method: Intracellular lactate accumulation after a 2 h treatment with compounds of the present invention was measured in Daudi (Burkitt Lymphoma) cells using the Lactate-Glo Assay (Promega).
Daudi cells were seeded at 7,500 cells per well in 150 μL of growth medium (RPMI-1640 with 2 mM GlutaMAX+10% FBS) in clear, 96-well, flat-bottom microplates, and incubated overnight (37° C., 5% CO2). Compounds of the present invention were added using an INTEGRA VIAFLO 96 (8 point, 3-fold serial dilution, top concentration 1, 10, or 20 μM, 0.4% final DMSO concentration). After a 2 h incubation (37° C., 5% CO2) microplates containing cells were washed twice with 150 μL ice-cold PBS, resuspended in 25 μL ice-cold PBS containing 12.5 μL 0.6N HCl, and placed on a microplate shaker for 5 min to lyse the cells. Following lysis, 12.5 μL 1M Trizma base was added to neutralize the suspension, and microplates were returned to the microplate shaker for 1 min. Plates were sealed and stored at −20° C. until further processing. On the day of the assay, microplates were thawed for 45 min at room temperate and […] Lactate Detection Reagent (prepared as specified by manufacturer) was added to each well. Microplates were placed on a plate shaker for 1 min and incubated at room temperature for 1 h. Luminescence was measured using a BioTek Cytation 5 Multi-Mode Reader. Curve fitting and calculation of EC50 was performed using GraphPad Prism.

On to `Cc1[nH]nc(C(F)(F)F)c1Cc1sc2c(c1C(=O)N1C[C@](C)(O)CO1)c(=O)n(C)c(=O)n2C(C)C` [AZD3965], for which the IC50 (in general, the concentration at which inhibition is half-maximal) in assay [1] (numeric values) was determined as 190 nM.

As to `O=C(Nc1ccccc1C(=O)O)c1cc(S(=O)(=O)c2ccccc2)ccc1Cl` [BAY8002], the half-inhibitory concentration (IC50) in assay [1] (numeric values) was 73 nM.

Consider `COc1cc(NC(=O)OC(C)C)ccc1-c1cnc([C@H]2CC[C@H](NC(=O)OC(C)C)CC2)s1` [Example 14, isopropyl ((trans)-4-(5-(4-((isopropoxycarbonyl)amino)-2-methoxyphenyl)thiazol-2-yl)cyclohexyl)carbamate], for which the EC50 (in general, the concentration needed to bring the measured effect to its halfway point) in assay [2] fell in the range of 150 to 1000 nM.

Turning to `CC(C)OC(=O)N[C@H]1CC[C@H](c2ncc(-c3ccc(NC(=O)NCc4ccccc4)cc3N)s2)CC1` [Example 19, isopropyl ((trans)-4-(5-(2-amino-4-(3-benzylureido)phenyl)thiazol-2-yl)cyclohexyl)carbamate], the EC50 in assay [2] is less than 50 nM.

`CC(C)OC(=O)N[C@H]1CC[C@H](c2ncc(-c3ccc(NC(=O)NCc4ccccc4)cc3O)s2)CC1` [Example 20, isopropyl ((trans)-4-(5-(4-(3-benzylureido)-2-hydroxyphenyl)thiazol-2-yl)cyclohexyl)carbamate]: in assay [2], the EC50 was less than 50 nM.

As for `CC(C)OC(=O)Nc1ccc(-c2cnc([C@H]3CC[C@H](NC(=O)OC(C)C)CC3)s2)c(F)c1` [Example 23, isopropyl ((trans)-4-(5-(2-fluoro-4-((isopropoxycarbonyl)amino)phenyl)thiazol-2-yl)cyclohexyl)carbamate], in assay [2], the EC50 is greater than 5000 nM.

Consider `COCCn1c(-c2ccc(NC(=O)OC(C)C)cc2F)cnc1[C@H]1CC[C@H](NC(=O)OC(C)C)CC1` [Example 32, isopropyl ((trans)-4-(5-(2-fluoro-4-((isopropoxycarbonyl)amino)phenyl)-1-(2-methoxyethyl)-1H-imidazol-2-yl)cyclohexyl)carbamate], for which, in assay [1] (class symbols), the IC50 is greater than 5000 nM.
